Entries after “also recorded” stand apart in the source; their conditions may differ.
How the values were obtained:
E. coli [1] = assay: FACS binding of TAMRA labeled peptide to E. coli; parameters: species or system Escherichia coli; conditions: 3 μM TAMRA labeled peptide in human plasma
Experimental: (§1) Flow cytometry analysis—Fifty μl of bacteria (1-2×10^6 cfu) were incubated with 450 μl of human plasma either alone or supplemented with GGL27 (at 3 μM). Samples were incubated for 30 min or 1 h at 37° C., divided into two equal parts, centrifuged, washed with PBS, and resuspended in 100 μl PBS with rabbit polyclonal antibodies against either LGE27 (25), a C-terminal epitope of human C3a, or rabbit polyclonal antibodies against C1q (both at 1:100). The mixtures were subsequently incubated for 1 h at room temperature. Bacteria were pelleted and washed twice with PBS, incubated in 100 μl PBS with goat anti rabbit IgG FITC-labeled antibodies (1:500, Sigma) for 30 min at room temperature and washed twice with PBS. In another experiment bacteria were incubated for 1 h in citrate plasma together with 3 μM TAMRA-labeled GGL27 peptide, then pelleted and washed twice with PBS. Flow cytometry analysis (Becton-Dickinson, Franklin Lakes, N.J.) was performed using a FACS-Calibur flow cytometry system equipped with a 15 mW argon laser turned a 488 nm. The bacterial population was selected by gating with appropriate settings of forward scatter (FSC) and sideward scatter (SSC).

P. aeruginosa = assay: FACS binding of TAMRA labeled peptide to P. aeruginosa; parameters: species or system Pseudomonas aeruginosa; conditions: 3 μM TAMRA labeled peptide in human plasma
Experimental: as §1

E. coli [2] = assay: Complement (C1q, C5b-9/MAC, C3a) binding to E. coli in citrate plasma (immunoblot, flow cytometry); assay type: cell-based, Escherichia coli; conditions: citrate plasma with GGL27 at 3 μM
Experimental: as §1
SDS-PAGE and immunoblotting—Human citrate plasma (450 μl) was incubated with 50 μl bacteria (1-2×10^9 cfu) either alone or supplemented with the peptide GGL27 at 3 μM. The mixture was incubated for 30 min or 1 h at 37° C., centrifuged, and supernatants and bacteria collected. The bacterial pellet was washed with PBS and bound proteins eluted with 0.1 M glycine-HCl, pH 2.0. The pH of the eluted material was raised to 7.5 with 1 M Tris. Eluted proteins were precipitated by addition of 1 volume of trichloroacetic acid (TCA) to 4 volumes of sample, followed by incubation for 30 min on ice and centrifugation at 15 000 g (4° C. for 20 min). Precipitated material and supernatants were dissolved in SDS sample buffer and analyzed under reducing conditions by SDS-PAGE on 16.5% Tris-tricine gels (Clear PAGE™, C.B.S Scientific). Proteins and peptides were transferred to nitrocellulose membranes (Hybond-C). […]

E. coli infected mice = assay: Animal infection model, E. coli; assay type: in vivo, mouse; conditions: E. coli i.p.; GGL27 200 μg i.p. after 30 min; P<0.001
Experimental: (§2) Animal infection model—Animals were housed under standard conditions of light and temperature and had free access to standard laboratory chow and water. P. aeruginosa 15159 bacteria were grown to logarithmic phase (OD620˜0.5), harvested, washed in PBS, diluted in the same buffer to 2×10^8 cfu/ml, and kept on ice until injection. Hundred microliter of the bacterial suspension was injected intraperitoneally (i.p.) into female Balb/c mice. Sixty minutes after the bacterial injection, 0.5 mg GGL27 or buffer alone was injected subcutaneously (s.c.) into the mice. In a corresponding E. coli infection model, bacteria were grown to early logarithmic phase (OD620˜0.4), harvested, washed in PBS, diluted in the same buffer to 1×10^8 cfu/ml, and kept on ice until injection. Hundred microliter of the bacterial suspension was injected i.p. into female Balb/c mice. Thirty minutes after the bacterial injection, 0.2 mg of GGL27 peptide or buffer alone was injected i.p. Data from two independent experiments were pooled.

[3] = test system: P. aeruginosa infected mice; assay: Animal infection model, P. aeruginosa; assay type: in vivo, mouse; conditions: P. aeruginosa i.p.; GGL27 500 μg s.c. after 1 h; P<0.001
Experimental: as §2

With “GGLIKTKRKRKKQRVKIAYEEIFVKNM [GGL27, C-terminal peptide of TFPI, plasmin-generated]” the binding to bacteria (E. coli [1]) was “avidly bound”, the binding to bacteria (P. aeruginosa) was “avidly bound” and the “binding of C1q to bacteria” value (E. coli [2]) was “enhances; also recorded: enhanced binding of C1q”. The “formation of MAC” value (E. coli [2]) was “enhances; also recorded: increased formation of MAC”, the “generation / binding of C3a” value (E. coli [2]) was “enhances; also recorded: significant generation of C3a” and the survival (E. coli infected mice) was “prolongs survival; also recorded: prolongation of survival”. For the same sequence, the survival [3] was “prolongs survival; also recorded: prolongation of survival”.

From US20120189673A1, “POLYPEPTIDES AND USES THEREOF” (priority 2009, published 2012)
